Assay [1] deals with bladder specimen of high-week-old male rats. Description: Test Example 3: isometric contraction test of bladder specimen from high-week-old male rats after oral dosing. Format: in vivo. The note with it: 22-week-old male rats, oral once a day 2 weeks, 10 mg/kg, compared with Group C (dutasteride 0.3 mg/kg). The source says: High-week-old male rats (22-week-old; Charles River Laboratories Japan, Inc.) were examined and evaluated for the relationship between the test substances and the bladder and urethra contraction reaction. Since the rats are high-week-old, the rats are a model in which the prostate is predicted to be enlarged.
A test substance was orally administered to the high-week-old male rats repeatedly at a frequency of once a day over two (2) weeks, and then, from each rat, a bladder specimen was extracted. The bladder specimen was suspended at a resting tension of about 9.8 mN in a constant-temperature Magnus tube (37° C.) filled with a physiological salt solution aerated with 95% 02-5% CO2 gas and was subjected to an isometric contraction test by applying a square-wave electrical field stimulation (EFS, Amplitude; 0.3 ms, Frequency; 1, 2, 5, 10, 20 Hz, Duration; 5 s); or Carbachol (CCH, 100 nmol/L to 100 μmol/L) and KCl (40, 80 mmol/L).
Solvent group (control group): 0.5 v/v % Polysorbate 80 solution, 10 mL/kg (n=6) • Group A: Compound A, 10 mg/kg (n=6) • Group C: Compound C (dutasteride), 0.3 mg/kg (n=6)

For assay [2], the system named is ovariectomized rats. Put plainly: Test Example 5: antiprogesterone activity, uterine weight associated with rat deciduoma formation. It counts as in vivo. The protocol:
For the compound A and the compound D (mifepristone), the antiprogesterone activity was measured. Specifically, a sex hormone and a test substance were repeatedly administered to ovariectomized rats as a test system to examine the antiprogesterone action (antiprogesterone activity) based on, as an index, the fluctuation of the uterine weight (the inhibitory action relative to the increase of the weight) associated with rat deciduoma formation.
More specifically, rats (female, Crl:CD(SD), 5-week-old: Charles River Laboratories Japan, Inc.) were subjected to ovariectomy, and from one (1) week after the ovariectomy, a high dose estrone of 5 μg/one animal was hypodermically administered to the rats once a day for three (3) days. From the day after one day rest period, the rats received, once a day over eight (8) days, hypodermic administration of a low dose estrone (1 μg/one animal), intramuscular administration of progesterone (6 mg/kg), and oral administration of a test substance. In the middle of the administration, on Day 4 of the start of administration, the rats were subjected to a stimulation treatment of decidualization reaction to the right uterus. The day after the final administration, the uterine weight (right uterine body) was measured (n=6). Group E was subjected to ovariectomy and a stimulation treatment of decidualization reaction but was not subjected to a hormone treatment.
Group E: rats with ovariectomy without hormone treatment 0.5 v/v % Polysorbate 80 solution, 10 mL/kg (n=6) • Solvent group (control group): 0.5 v/v % Polysorbate 80 solution, 10 mL/kg (n=6) • Group A3: Compound A, 3 mg/kg (n=6) • Group A10: Compound A, 10 mg/kg (n=6) • Group A30: Compound A, 30 mg/kg (n=6) • Group D: Compound D (mifepristone), 3 mg/kg (n=6)

Results on 1 compound are retold here after patent US20240041899A1, “SOLID PREPARATION” (ASKA Pharmaceutical Co., Ltd., priority 2020, published 2024).

SMILES strings stand for the structures.

In general, inhibition refers to the change of the read-out against control, counted positive when it falls. Take `CC(=O)O[C@]1(C(C)=O)C[C@@H](O)[C@H]2[C@@H]3C=C(Cl)C4=CC(=O)OC[C@]4(C)[C@H]3CC[C@@]21C` [Compound A, 17α-acetoxy-6-chloro-15β-hydroxy-2-oxa-4,6-pregnadiene-3,20-dione]: the “bladder contraction tension caused by square-wave electrical field stimulation or Carbachol and KCl” value in assay [1] was “significantly strong or has a strong directionality”. Moreover, the inhibition at 3 mg/kg in assay [2] (Rattus norvegicus, 192 h, ovariectomized rats, estrone + progesterone, oral 3 mg/kg once a day 8 days, compared with the solvent group, read-out: inhibition rate (increase of uterine weight, deciduoma formation)) was found to be 15%. The inhibition at 10 mg/kg in assay [2] (Rattus norvegicus, 192 h, ovariectomized rats, estrone + progesterone, oral 10 mg/kg once a day 8 days, compared with the solvent group, read-out: inhibition rate (increase of uterine weight, deciduoma formation)) worked out at 63%. In assay [2] (Rattus norvegicus, 192 h, ovariectomized rats, estrone + progesterone, oral 30 mg/kg once a day 8 days, compared with the solvent group, read-out: inhibition rate (increase of uterine weight, deciduoma formation)), the inhibition at 30 mg/kg was 83.3%. In addition, the antiprogesterone activity result in assay [2] (ovariectomized rats, 3, 10, 30 mg/kg oral) is “has an antiprogesterone activity”.
